In patent US20220281886A1, “NATRIURETIC PEPTIDE RECEPTOR A AGONISTS USEFUL FOR THE TREATMENT OF CARDIOMETABOLIC DISEASES, KIDNEY DISEASE AND DIABETES” (Merck Sharp & Dohme Corp., priority 2019, published 2022):

Target: T1, hNPRA (Homo sapiens, UniProt P16066)
T1 construct: expressed in transfected cells
T1 sequence (P16066 33-1061): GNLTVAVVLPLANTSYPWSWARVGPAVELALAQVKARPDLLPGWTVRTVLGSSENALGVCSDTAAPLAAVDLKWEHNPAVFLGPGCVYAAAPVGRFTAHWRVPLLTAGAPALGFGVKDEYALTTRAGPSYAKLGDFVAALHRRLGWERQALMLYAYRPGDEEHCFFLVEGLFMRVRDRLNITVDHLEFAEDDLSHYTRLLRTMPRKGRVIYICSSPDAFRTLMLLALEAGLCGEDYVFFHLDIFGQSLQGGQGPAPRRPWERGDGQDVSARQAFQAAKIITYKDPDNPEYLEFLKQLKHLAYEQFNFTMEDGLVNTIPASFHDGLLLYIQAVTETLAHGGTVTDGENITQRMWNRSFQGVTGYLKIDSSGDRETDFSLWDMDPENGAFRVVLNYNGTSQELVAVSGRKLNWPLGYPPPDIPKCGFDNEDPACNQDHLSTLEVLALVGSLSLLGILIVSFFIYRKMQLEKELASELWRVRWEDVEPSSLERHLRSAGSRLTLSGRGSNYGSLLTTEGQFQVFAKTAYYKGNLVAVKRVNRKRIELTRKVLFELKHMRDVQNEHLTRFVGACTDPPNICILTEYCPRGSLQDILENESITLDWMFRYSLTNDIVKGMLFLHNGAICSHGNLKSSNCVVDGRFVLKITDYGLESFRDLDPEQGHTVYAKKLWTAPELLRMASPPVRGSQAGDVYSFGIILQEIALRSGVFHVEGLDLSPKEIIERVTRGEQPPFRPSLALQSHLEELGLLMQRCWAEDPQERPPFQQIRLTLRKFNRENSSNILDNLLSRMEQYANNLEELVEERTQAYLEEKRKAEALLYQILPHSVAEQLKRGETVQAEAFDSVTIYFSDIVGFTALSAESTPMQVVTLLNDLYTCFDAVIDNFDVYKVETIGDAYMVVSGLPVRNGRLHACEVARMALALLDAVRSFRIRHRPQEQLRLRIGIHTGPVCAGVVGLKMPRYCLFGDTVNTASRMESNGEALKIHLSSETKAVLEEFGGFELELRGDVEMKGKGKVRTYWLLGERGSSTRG
Assay: NPRA Functional Cell Assay (cGMP HTRF)
Type: cell-based
Details: Human NPRA HEK JumpIn stable cells; cGMP by HTRF after 1 hour at 37° C.; 10-point dose response
Procedure, shortened: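 HEK JumpIn cells stably expressing human, rat or dog NPRA incubated 1 hour at 37° C with compound (10-point titration) in Opti-MEM buffer with 100 uM IBMX and 100 uM RO20. cGMP measured by HTRF against an on-plate calibration curve; EC50 from 4-parameter fit, positive control 10 nM rat-ANP (rat) or 50 nM h-ANP (human, dog).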

| Structure (SMILES) | EC50 |
| --- | --- |
| COC(=O)CC1CCN(CC[C@@H](NC(=O)c2ccc3nc4c(cc3c2)C[C@@H](C2(C)CC2)CC4)c2cccc(C(=O)NC3CN(C)C3)c2)CC1 (racemic) [Example 65, methyl 2-[1-[rac-(3R)-3-[(1-methylazetidin-3-yl)carbamoyl]phenyl]-3-[[rac-(7S)-7-(1-methylcyclopropyl)-5,6,7,8-tetrahydroacridine-2-carbonyl]amino]propyl]-4-piperidyl]acetate] | 359 nM |
| O=C(N[C@H](CCN1CCC(O)CC1)c1ccc(N2CCOC2=O)cc1)c1ccc2nc3c(cc2c1)C[C@@H](C1(C(F)(F)F)CC1)CC3 [Example 4, (7S)-N-{(1R)-3-(4-hydroxypiperidin-1-yl)-1-[4-(2-oxo-1,3-oxazolidin-3-yl)phenyl]propyl}-7-[1-(trifluoromethyl)cyclopropyl]-5,6,7,8-tetrahydroacridine-2-carboxamide] | 2220 nM |
| CC(C)(C)[C@H]1CCc2nc3ccc(C(=O)N[C@H](CCN4CCC(O)CC4)c4ccc(N5CCOC5=O)cc4)cc3cc2C1 [Example 3, (7S)-7-tert-butyl-N-{(1R)-3-(4-hydroxypiperidin-1-yl)-1-[4-(2-oxo-1,3-oxazolidin-3-yl)phenyl]propyl}-5,6,7,8-tetrahydroacridine-2-carboxamide] | 753 nM |
| CC(C)[C@]1(F)CCc2nc3c(F)cc(C(=O)N[C@H](CCN4CCC(CO)CC4)c4ccc(-c5ccnnc5)nc4)cc3cc2C1 (racemic) [Example 45, rac-(7S)-4,7-difluoro-7-isopropyl-N-[rac-(1R)-3-[4-(hydroxymethyl)piperidin-1-ium-1-yl]-1-(6-pyridazin-4-yl-3-pyridyl)propyl]-6,8-dihydro-5H-acridine-2-carboxamide;2,2,2-trifluoroacetate] | 136 nM |
| CC(C)[C@]1(F)CCc2nc3c(F)cc(C(=O)N[C@H](CCN4CCC(CN5CCOCC5)CC4)c4ccc(-c5ccnnc5)nc4)cc3cc2C1 (racemic) [Example 60, rac-(7S)-4,7-difluoro-7-isopropyl-N-[rac-(1R)-3-[4-(morpholinomethyl)-1-piperidyl]-1-(6-pyridazin-4-yl-3-pyridyl)propyl]-6,8-dihydro-5H-acridine-2-carboxamide] | 182 nM |
| CC(C)[C@]1(F)CCc2nc3c(F)cc(C(=O)N[C@H](CCN4[C@H](C)CCC[C@@H]4C)c4ccc(-c5ccnnc5)nc4)cc3cc2C1 (racemic) [Example 61, rac-(7S)-4,7-difluoro-7-isopropyl-N-[rac-(1R)-1-(6-pyridazin-4-yl-3-pyridyl)-3-[rac-(2R,6S)-2,6-dimethyl-1-piperidyllpropyl]-6,8-dihydro-5H-acridine-2-carboxamide] | 103 nM |
